Reference: US20010051612A1, “2-Thioether A2A receptor agonists” (priority 2000, published 2001)

What was measured:
A2A adenosine receptor = molecular target: T1, A2A adenosine receptor (Sus scrofa, UniProt K9IW67); test: Affinity for the A2A receptor in a pig striatum membrane prep (displacement of tritiated ZM 241385); format: binding; settings: pig striatal membranes, [3H]ZM 241385 2 nM, 23° C. 2h, Ki from IC50
T1 construct: from tissue; host or cells: pig striatum membranes
Experimental: Compositions of this invention were assayed to determine their affinity for the A2A receptor in a pig striatum membrane prep. 0.2 mg of pig striatal membranes were treated with adenosine deaminase and 50 mM Tris buffer (pH=7.4) followed by mixing. […] After incubation at 23° C. for 2h, the solutions were filtered using a membrane harvester using multiple washing of the membranes (3×). The filter disks were counted in scintillation cocktail affording the amount of displacement of tritiated ZM by the competitive binding compositions of this invention. Greater than a 5 point curve was used to generate IC50's and the number of experiments (n) is indicated in the column marked in Tables 3-4 below. The Chang-Prusoff equation was used to generate Ki's from the IC50 data.

A1 = molecular target: T2, A1 (Homo sapiens, UniProt P30542); test: Affinity for the A1 receptor (Ki column, no method described); format: binding; settings: compounds 1a-5a table
T2 sequence (P30542 1-326): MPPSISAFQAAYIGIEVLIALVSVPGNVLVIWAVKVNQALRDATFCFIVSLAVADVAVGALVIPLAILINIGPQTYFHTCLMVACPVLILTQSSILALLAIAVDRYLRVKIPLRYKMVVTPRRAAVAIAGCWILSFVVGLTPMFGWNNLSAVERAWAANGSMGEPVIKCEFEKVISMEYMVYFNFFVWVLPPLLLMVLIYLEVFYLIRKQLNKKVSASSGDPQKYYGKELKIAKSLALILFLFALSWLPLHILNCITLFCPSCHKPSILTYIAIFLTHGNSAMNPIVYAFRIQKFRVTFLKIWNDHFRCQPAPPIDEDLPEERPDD

T1 sequence (K9IW67 1-409): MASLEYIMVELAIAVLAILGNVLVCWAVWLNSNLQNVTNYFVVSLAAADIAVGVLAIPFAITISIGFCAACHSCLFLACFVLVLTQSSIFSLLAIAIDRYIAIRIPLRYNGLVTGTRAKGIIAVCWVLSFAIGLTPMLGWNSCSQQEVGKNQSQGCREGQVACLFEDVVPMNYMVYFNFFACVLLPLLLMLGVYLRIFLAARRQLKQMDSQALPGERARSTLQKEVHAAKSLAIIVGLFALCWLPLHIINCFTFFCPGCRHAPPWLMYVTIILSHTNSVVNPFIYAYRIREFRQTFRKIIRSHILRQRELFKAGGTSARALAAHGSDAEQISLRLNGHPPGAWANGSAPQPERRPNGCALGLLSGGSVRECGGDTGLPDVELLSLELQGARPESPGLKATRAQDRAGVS

Ki (A2A adenosine receptor; Table 3, compounds 1-7) [nM]	melting point	Ki (A2A adenosine receptor; compounds 1a-5a) [nM]	Ki (A1) [nM]	Structure (SMILES)
	122 to 125 °C	6120		CCNC(=O)[C@H]1O[C@@H](n2cnc3c(N)nc(Sc4ccccc4)nc32)[C@H](O)[C@@H]1O [Compound 1a, [(2S, 3S, 4R, 5R)-5-(6-amino-2-phenylthiopurin-9-yl)-3,4-dihydroxyoxolan-2yl]-N -ethylcarboxamide]
	245 °C (dec.)	> 10000		CCNC(=O)[C@H]1O[C@@H](n2cnc3c(N)nc(SCc4ccccc4)nc32)[C@H](O)[C@@H]1O [Compound 2a, [(2S, 3S, 4R, 5R)-5-(6-amino-2-(phenylmethylthio)purin-9-yl)-3,4-dihydroxyoxolan-2yl]-N-ethylcarboxamide]
	97 to 99 °C	85	> 10000	CCNC(=O)[C@H]1O[C@@H](n2cnc3c(N)nc(SCCc4ccccc4)nc32)[C@H](O)[C@@H]1O [Compound 3a, [(2S, 3S, 4R, 5R)-5-(6-amino-2-(phenylethylthio)purin-9-yl)-3,4-dihydroxyoxolan-2-yl]-N-ethylcarboxamide]
	185 to 188 °C	6280		CCNC(=O)[C@H]1O[C@@H](n2cnc3c(N)nc(SCCCc4ccccc4)nc32)[C@H](O)[C@@H]1O [Compound 4a, [(2S, 3S, 4R, 5R)-5-(6-amino-2-(phenylpropylthio)purin-9-yl)-3,4-dihydroxyoxolan-2-yl]-N-ethylcarboxamide]

More lines, now with the values behind:

Structure (SMILES)	Ki (A2A adenosine receptor; Table 3, compounds 1-7) [nM]	melting point	Ki (A2A adenosine receptor; compounds 1a-5a) [nM]	Ki (A1) [nM]
Nc1nc(Sc2ccccc2)nc2c1ncn2[C@@H]1O[C@H](CO)[C@@H](O)[C@H]1O [Compound 1, (4S, 2R, 3R, 5R)-2-(6-amino-2-phenylthiopurin-9-yl)-5-(hydroxymethyl)oxolane-3,4-diol]	> 10000	137 to 139 °C		
Nc1nc(SCc2ccccc2)nc2c1ncn2[C@@H]1O[C@H](CO)[C@@H](O)[C@H]1O [Compound 2, (4S, 2R. 3R, 5R)-2-(6-amino-2-phenylmethylthiopurin-9-yl)-5-(hydroxymethyl)-oxolane-3,4-diol]	9540			
Nc1nc(SCCCc2ccccc2)nc2c1ncn2[C@@H]1O[C@H](CO)[C@@H](O)[C@H]1O [Compound 4, (4S, 2R, 3R, 5R)-2-(6-amino-2-phenylpropylthiopurin-9-yl)-5-(hydroxymethyl)oxolane-3,4-diol]	> 10000			
CCCCCSc1nc(N)c2ncn([C@@H]3O[C@H](CO)[C@@H](O)[C@H]3O)c2n1 [Compound 5, (4S, 2R,3R, 5R)-2-(6-amino-2-pentyltiopurin-9-yl)-5-(hydroxymethymethyl)oxolane-3,4-diol]	> 10000	177 °C (dec.)		
CCCCCSc1nc(N)c2ncn([C@@H]3O[C@H](C(=O)NCC)[C@@H](O)[C@H]3O)c2n1 [Compound 5a, [(2S, 3S, 4R, 5R)-5-(6-amino-2-pentylthiopurin-9-yl)-3,4-dihydroxyoxolan-2-yl]-N-ethylcarboxamide]		> 270 °C (dec.)	4310	
Nc1nc(SCCCCO)nc2c1ncn2[C@@H]1O[C@H](CO)[C@@H](O)[C@H]1O [Compound 6, (4S, 2R, 3R, 5R)-2-(6-amino-2-(4-hydroxybutylthio)purin-9-yl)-5-(hydroxymethyl)oxolane-3,4-diol]	> 100000	88 to 90 °C		
Nc1nc(SC2CCCC2)nc2c1ncn2[C@@H]1O[C@H](CO)[C@@H](O)[C@H]1O [Compound 7, (4S, 2R, 3R, 5R)-2-(6-amino-2-cyclopentylthiopurin-9-yl)-5-(hydroxymethyl)oxolane-3,4-diol]	> 10000	213 °C (dec.)		
